Values belong to the compound of their own block, whether it stands above or below them. Activity calls are given as the source filed them. The calls are words filed in the database; no cut-off is given here.
Tests used:
[1] = test system: Rattus norvegicus; assay: Systolic blood pressure (SBP) in anesthetized spontaneously hypertensive rats (SHR) before administration of 75 mg/kg dose perorally.; type: functional; design: unit: mmHg; conditions: route oral
[2] = test system: Rattus norvegicus; assay: Systolic blood pressure (SBP) in anesthetized spontaneously hypertensive rats(SHR) at 7.5 hours after administration of 75 mg/kg dose perorally; NS is not statistically significant
[3] = species on record: Cavia porcellus; assay: Inhibition of the isoproterenol response at a dose of 1 x 10e -4M in guinea pig; slight inhibition was found; type: functional, organism-based
[4] = test system: Rattus norvegicus; assay: Systolic blood pressure (SBP) in anesthetized spontaneously hypertensive rats(SHR) at 7.5 hours after administration of 35 mg/kg dose perorally; type: functional; conditions: route oral
[5] = test system: Rattus norvegicus; assay: Systolic blood pressure (SBP) in anesthetized spontaneously hypertensive rats(SHR) at 7.5 hours after administration of 75 mg/kg dose perorally; type: functional; conditions: route oral
[6] = test system: Rattus norvegicus; assay: Systolic blood pressure (SBP) in anesthetized spontaneously hypertensive rats(SHR) before administration of 35 mg/kg dose perorally; type: functional; design: unit not given here; conditions: route oral
[7] = test system: Rattus norvegicus; assay: Compound was evaluated for % decrease in hypothalamus norepinephrine in anesthetized spontaneously hypertensive rats(SHR) at 24 hours after administration of 35 mg/kg dose perorally; type: functional; conditions: route oral
[8] = test system: Rattus norvegicus; assay: Compound was evaluated for % decrease in heart norepinephrine in anesthetized spontaneously hypertensive rats(SHR) at 24 hours after administration of 35 mg/kg dose perorally; type: functional; conditions: route oral
[9] = test system: Rattus norvegicus; assay: Compound was evaluated for % decrease in adrenal epinephrine in anesthetized spontaneously hypertensive rats(SHR) at 24 hours after administration of 35 mg/kg dose perorally; type: functional; conditions: route oral
[10] = test system: Rattus norvegicus; assay: Systolic blood pressure (SBP) in anesthetized spontaneously hypertensive rats(SHR) at 7.5 hours after administration of 75 mg/kg dose perorally; NS is not statistically significant.
[11] = test system: Rattus norvegicus; assay: % decrease in heart norepinephrine in anesthetized spontaneously hypertensive rats(SHR) at 5 hours after administration of 150 mg/kg dose perorally; type: functional; conditions: route oral
[12] = test system: Rattus norvegicus; assay: % decrease in heart norepinephrine in anesthetized spontaneously hypertensive rats(SHR) at 5 hours after administration of 35 mg/kg dose perorally; type: functional; conditions: route oral
[13] = test system: Rattus norvegicus; assay: % decrease in heart norepinephrine in anesthetized spontaneously hypertensive rats(SHR) at 5 hours after administration of 75 mg/kg dose perorally; type: functional; conditions: route oral
[14] = test system: Rattus norvegicus; assay: % decrease in heart 5-HT in anesthetized spontaneously hypertensive rats(SHR) at 5 hours after administration of 75 mg/kg dose perorally; *value significantly different was control.; type: functional; conditions: route oral
[15] = test system: Rattus norvegicus; assay: % decrease in heart 5-HT in anesthetized spontaneously hypertensive rats(SHR) at 5 hours after administration of 150 mg/kg dose perorally; type: functional; conditions: route oral
[16] = test system: Rattus norvegicus; assay: % decrease in hypothalamus dopamine in anesthetized spontaneously hypertensive rats(SHR) at 5 hours after administration of 35 mg/kg dose perorally; type: functional; conditions: route oral
[17] = test system: Rattus norvegicus; assay: % decrease in hypothalamus dopamine in anesthetized spontaneously hypertensive rats(SHR) at 5 hours after administration of 75 mg/kg dose perorally; type: functional; conditions: route oral
[18] = test system: Rattus norvegicus; assay: % decrease in hypothalamus norepinephrine in anesthetized spontaneously hypertensive rats(SHR) at 5 hours after administration of 35 mg/kg dose perorally; type: functional; conditions: route oral
[19] = test system: Rattus norvegicus; assay: % decrease in hypothalamus norepinephrine in anesthetized spontaneously hypertensive rats(SHR) at 5 hours after administration of 75 mg/kg dose perorally; type: functional; conditions: route oral
[20] = test system: Rattus norvegicus; assay: % decrease in heart 5-HT in anesthetized spontaneously hypertensive rats(SHR) at 5 hours after administration of 35 mg/kg dose perorally; type: functional; conditions: route oral
[21] = test system: Rattus norvegicus; assay: % decrease in hypothalamus norepinephrine in anesthetized spontaneously hypertensive rats(SHR) at 5 hours after administration of 150 mg/kg dose perorally; type: functional; conditions: route oral
[22] = test system: Rattus norvegicus; assay: % decrease in hypothalamus DA in anesthetized spontaneously hypertensive rats(SHR) at 5 hours after administration of 150 mg/kg dose perorally; conditions: route oral
[23] = test system: Rattus norvegicus; assay: % decrease in systolic blood pressure (SBP) in anesthetized spontaneously hypertensive rats(SHR) after administration of 150 mg/kg dose perorally; conditions: route oral
[24] = test system: Rattus norvegicus; assay: Systolic blood pressure (SBP) in anesthetized spontaneously hypertensive rats(SHR) at 7.5 hours after administration of 35 mg/kg dose perorally; NS is not statistically significant
[25] = test system: Rattus norvegicus; assay: Systolic blood pressure (SBP) in anesthetized spontaneously hypertensive rats(SHR) at 7.5 hours after administration of 17 mg/kg dose perorally; type: functional; conditions: route oral
[26] = test system: Rattus norvegicus; assay: Systolic blood pressure (SBP) in anesthetized spontaneously hypertensive rats(SHR) before administration of 17 mg/kg dose perorally; type: functional; conditions: route oral
[27] = species on record: Cavia porcellus; assay: Inhibition of the isoproterenol response at a dose of 1 x 10e -4M in guinea pig; slight inhibition was found.; type: functional, organism-based
[28] = target: Adrenergic receptor beta (Rattus norvegicus, UniProt P18090+P10608+P26255)
Description: Inhibition constant from beta adrenergic receptor binding assay

SMILES: O=c1cc(-c2ccccc2)oc2cc(OCC(O)CNCC(O)COc3ccccc3)ccc12 (stereo unspecified)
Systolic blood pressure [1]: 198
Decrease in Systolic blood pressure [2]: Not significant

SMILES: Cc1c(-c2ccccc2)oc2cc(OCC(O)CNC(C)C)ccc2c1=O (stereo unspecified)
Activity [3]: slight inhibition was found
Decrease in Systolic blood pressure [4]: 10%
Decrease in Systolic blood pressure [5]: 27%
Systolic blood pressure [6]: 206
Systolic blood pressure [1]: 208

SMILES: CCCNCC(O)COc1ccc2c(=O)c(-c3ccccc3)c(-c3ccccc3)oc2c1 (stereo unspecified)
Decrease [7]: 12%
Decrease [8]: 100%
Decrease [9]: 10%

SMILES: O=c1cc(-c2ccccc2)oc2cc(OCC(O)CN3CCN(c4ccccc4)CC3)ccc12 (stereo unspecified)
Systolic blood pressure [1]: 217
Decrease in Systolic blood pressure [10]: Not significant

SMILES: CCCNCC(COc1ccc2c(=O)cc(-c3ccccc3)oc2c1)OC(=O)c1ccccc1 (stereo unspecified)
Decrease in Systolic blood pressure [5]: 22.5%
Systolic blood pressure [1]: 187

SMILES: COc1c(-c2ccccc2)oc2cc(OCC(O)CNC(C)C)ccc2c1=O (stereo unspecified)
Decrease [11]: 70%
Decrease [12]: 55%
Decrease [13]: 61%
Decrease [14]: 29%
Decrease [15]: 37%
Decrease [16]: 29%
Decrease [17]: 26%
Decrease [18]: 12%
Decrease [19]: 16%
Decrease [20]: 7%
Decrease [21]: 28%
% decrease hypothalamus DA [22]: 37%
% decrease SBP [23]: 16%
Decrease in Systolic blood pressure [2]: Not significant

SMILES: CC(C)NCC(O)COc1cc(O)c2c(=O)cc(-c3ccccc3)oc2c1 (stereo unspecified)
Decrease in Systolic blood pressure [5]: 15%
Systolic blood pressure [1]: 195

SMILES: CC(C)NCC(O)COc1ccc2c(=O)c(Cc3ccccc3)c(-c3ccccc3)oc2c1 (stereo unspecified)
Systolic blood pressure [1]: 200
Decrease in Systolic blood pressure [2]: Not significant

SMILES: CNCC(O)COc1ccc2c(=O)cc(-c3ccccc3)oc2c1 (stereo unspecified)
Systolic blood pressure [6]: 190
Decrease in Systolic blood pressure [24]: Not significant

SMILES: O=c1cc(-c2ccccc2)oc2cc(OCC(O)CNCCO)ccc12 (stereo unspecified)
Systolic blood pressure [1]: 189
Decrease in Systolic blood pressure [10]: Not significant

Ki [28]: 1.5 µM
SMILES: O=c1cc(-c2ccccc2)oc2cc(OCC(O)CNC3CC3)ccc12 (stereo unspecified)
Decrease in Systolic blood pressure [25]: 21%
Decrease in Systolic blood pressure [4]: 31%
Decrease in Systolic blood pressure [5]: 32%
Systolic blood pressure [26]: 197
Systolic blood pressure [6]: 198
Systolic blood pressure [1]: 196
Activity [27]: Weak activity

SMILES: CC(C)[N+](C)(C)CC(O)COc1ccc2c(=O)cc(-c3ccccc3)oc2c1.[I-] (stereo unspecified)
Systolic blood pressure [1]: 200
Decrease in Systolic blood pressure [2]: Not significant

SMILES: CC(C)NCC(O)COc1cccc2ccccc12 (stereo unspecified) [PROPRANOLOL]
Systolic blood pressure [1]: 212
Decrease in Systolic blood pressure [2]: inactive

SMILES: CC(C)N(Cc1ccccc1)CC(O)COc1ccc2c(=O)cc(-c3ccccc3)oc2c1 (stereo unspecified)
Systolic blood pressure [1]: 200
Decrease in Systolic blood pressure [10]: Not significant

SMILES: CCCNCC(O)COc1ccc2c(=O)c(Cc3ccccc3)c(-c3ccccc3)oc2c1 (stereo unspecified)
Decrease in Systolic blood pressure [5]: 14%
Systolic blood pressure [1]: 198

SMILES: Cc1ccc(-c2cc(=O)c3ccc(OCC(O)CNC(C)C)cc3o2)cc1 (stereo unspecified)
Systolic blood pressure [1]: 196
Decrease in Systolic blood pressure [10]: Not significant

Ki [28]: 23 µM
SMILES: Cc1cc(=O)c2ccc(OCC(O)CNC(C)C)cc2o1 (stereo unspecified)
Systolic blood pressure [1]: 196
Decrease in Systolic blood pressure [10]: inactive

SMILES: CC(C)NCC(O)COc1ccc2c(=O)cc(-c3ccc(Cl)cc3)oc2c1 (stereo unspecified)
Decrease in Systolic blood pressure [4]: 19%
Systolic blood pressure [6]: 192

SMILES: CC(C)NCC(O)COc1ccc2c(=O)cc(-c3ccc([N+](=O)[O-])cc3)oc2c1 (stereo unspecified)
Systolic blood pressure [1]: 202
Decrease in Systolic blood pressure [10]: Not significant

Source: ChEMBL document CHEMBL1124625, “Flavones. 2. Synthesis and structure-activity relationship of flavodilol and its analogues, a novel class of antihypertensive agents with catecholamine depleting properties” (J Med Chem, 1989)
